System: HSSY-II complex spheroid growth, percent test/control
Experiment: Anticancer human tumor HSSY-II cell line growth inhibition [Asc];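 note: spheroids exposed to drug for 7 days before reading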
Details: for IC50: curve of first compound; for viability, T/C: stronger effect = lower value
Procedure, shortened: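 Complex solid-tumor spheroids incorporating human endothelial and mesenchymal stem cells received single agents or combinations over half-log dilution ranges anchored to clinical Cmax.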

C#Cc1c(F)ccc2cc(O)cc(-c3ncc4c(N5CC6CCC(C5)N6)nc(OCC56CCCN5CC(F)C6)nc4c3F)c12 (stereo not given) + Cc1c(S(C)(=O)=O)c(-c2cc(F)cc(N3CCN(c4ccc(NS(=O)(=O)c5ccc(NC(CCN6CCC(C(=O)OCCCP(=O)(O)O)CC6)CSc6ccccc6)c(S(=O)(=O)C(F)(F)F)c5)cc4)CC3)c2)c(-c2ccc(Cl)cc2)n1C(C)C
IC50 (second compound 0.1 µM): 8.63 µM | IC50 (second compound 0.316 µM): 6.03 µM | IC50 (second compound 1 µM): 5.88 µM | IC50 (second compound 3.16 µM): 5.43 µM | IC50 (second compound 10 µM): 5.95 µM | viability, T/C (second compound 0.1 µM, first compound 0.0316 µM): 103% | viability, T/C (second compound 0.1 µM, first compound 0.1 µM): 99.5% | viability, T/C (second compound 0.1 µM, first compound 0.316 µM): 99.6% | viability, T/C (second compound 0.1 µM, first compound 1 µM): 102% | viability, T/C (second compound 0.1 µM, first compound 3.16 µM): 87.8% | viability, T/C (second compound 0.1 µM, first compound 10 µM): 44% | viability, T/C (second compound 0.316 µM, first compound 0.0316 µM): 108% | viability, T/C (second compound 0.316 µM, first compound 0.1 µM): 117% | viability, T/C (second compound 0.316 µM, first compound 0.316 µM): 110% | viability, T/C (second compound 0.316 µM, first compound 1 µM): 105% | viability, T/C (second compound 0.316 µM, first compound 3.16 µM): 82% | viability, T/C (second compound 0.316 µM, first compound 10 µM): 25% | viability, T/C (second compound 1 µM, first compound 0.0316 µM): 102% | viability, T/C (second compound 1 µM, first compound 0.1 µM): 105% | viability, T/C (second compound 1 µM, first compound 0.316 µM): 109% | viability, T/C (second compound 1 µM, first compound 1 µM): 105% | viability, T/C (second compound 1 µM, first compound 3.16 µM): 96.8% | viability, T/C (second compound 1 µM, first compound 10 µM): 9.87% | viability, T/C (second compound 3.16 µM, first compound 0.0316 µM): 108% | viability, T/C (second compound 3.16 µM, first compound 0.1 µM): 115% | viability, T/C (second compound 3.16 µM, first compound 0.316 µM): 94.3% | viability, T/C (second compound 3.16 µM, first compound 1 µM): 101% | viability, T/C (second compound 3.16 µM, first compound 3.16 µM): 83.7% | viability, T/C (second compound 3.16 µM, first compound 10 µM): 13.2% | viability, T/C (second compound 10 µM, first compound 0.0316 µM): 105% | viability, T/C (second compound 10 µM, first compound 0.1 µM): 95.2% | viability, T/C (second compound 10 µM, first compound 0.316 µM): 92.6% | viability, T/C (second compound 10 µM, first compound 1 µM): 97.8% | viability, T/C (second compound 10 µM, first compound 3.16 µM): 74.9% | viability, T/C (second compound 10 µM, first compound 10 µM): 29.4%

Cc1nc(N2CCC3(CC2)COC(C)C3N)c(CO)nc1Sc1ccnc(N)c1Cl (stereo not given) + Cc1c(S(C)(=O)=O)c(-c2cc(F)cc(N3CCN(c4ccc(NS(=O)(=O)c5ccc(NC(CCN6CCC(C(=O)OCCCP(=O)(O)O)CC6)CSc6ccccc6)c(S(=O)(=O)C(F)(F)F)c5)cc4)CC3)c2)c(-c2ccc(Cl)cc2)n1C(C)C
IC50 (second compound 0.1 µM): > 3 µM | IC50 (second compound 0.316 µM): > 3 µM | IC50 (second compound 1 µM): > 3 µM | IC50 (second compound 3.16 µM): > 3 µM | IC50 (second compound 10 µM): > 3 µM | viability, T/C (second compound 0.1 µM, first compound 0.00949 µM): 79.8% | viability, T/C (second compound 0.1 µM, first compound 0.03 µM): 83.8% | viability, T/C (second compound 0.1 µM, first compound 0.0949 µM): 88.9% | viability, T/C (second compound 0.1 µM, first compound 0.3 µM): 78.8% | viability, T/C (second compound 0.1 µM, first compound 0.949 µM): 84.9% | viability, T/C (second compound 0.1 µM, first compound 3 µM): 60.2% | viability, T/C (second compound 0.316 µM, first compound 0.00949 µM): 59.4% | viability, T/C (second compound 0.316 µM, first compound 0.03 µM): 71.4% | viability, T/C (second compound 0.316 µM, first compound 0.0949 µM): 60.7% | viability, T/C (second compound 0.316 µM, first compound 0.3 µM): 79.1% | viability, T/C (second compound 0.316 µM, first compound 0.949 µM): 65.3% | viability, T/C (second compound 0.316 µM, first compound 3 µM): 61.7% | viability, T/C (second compound 1 µM, first compound 0.00949 µM): 68.1% | viability, T/C (second compound 1 µM, first compound 0.03 µM): 66.1% | viability, T/C (second compound 1 µM, first compound 0.0949 µM): 78.5% | viability, T/C (second compound 1 µM, first compound 0.3 µM): 51.7% | viability, T/C (second compound 1 µM, first compound 0.949 µM): 67.5% | viability, T/C (second compound 1 µM, first compound 3 µM): 59.2% | viability, T/C (second compound 3.16 µM, first compound 0.00949 µM): 64.1% | viability, T/C (second compound 3.16 µM, first compound 0.03 µM): 53.9% | viability, T/C (second compound 3.16 µM, first compound 0.0949 µM): 65% | viability, T/C (second compound 3.16 µM, first compound 0.3 µM): 58.1% | viability, T/C (second compound 3.16 µM, first compound 0.949 µM): 63.3% | viability, T/C (second compound 3.16 µM, first compound 3 µM): 62.2% | viability, T/C (second compound 10 µM, first compound 0.00949 µM): 50.7% | viability, T/C (second compound 10 µM, first compound 0.03 µM): 64.1% | viability, T/C (second compound 10 µM, first compound 0.0949 µM): 62.7% | viability, T/C (second compound 10 µM, first compound 0.3 µM): 48.3% | viability, T/C (second compound 10 µM, first compound 0.949 µM): 51.3% | viability, T/C (second compound 10 µM, first compound 3 µM): 54.6%

— PubChem BioAssay AID1963444 (Molecular Pharmacology Branch, DTP, NCI, 2024)
